Source: ChEMBL document CHEMBL1828514, “Comparison of the reactivity of antimalarial 1,2,4,5-tetraoxanes with 1,2,4-trioxolanes in the presence of ferrous iron salts, heme, and ferrous iron salts/phosphatidylcholine” (J Med Chem, 2011)
pIC50: −log10 of the molar value. The source made the active and inactive calls. No cut-off for these calls is given here.

Legend:
Plasmodium falciparum = assay: Antimalarial activity against Plasmodium falciparum 3D7 assessed as inhibition of [3H]hypoxanthine incorporation after 48 hrs by liquid scintillation counting; format: functional, organism-based
[1] = Induction of 2-Linoleoyl-1-palmitoyl-sn-phosphotidylcholine peroxidation in the presence of Ferrous sulphate after 24 hrs by LC/MS analysis; format: functional
[2] = Chemical stability of the compound assessed as iron-mediated decomposition after 24 hrs by LC/MS analysis; format: physicochemical
[3] = Induction of TEMPO adduct formation after 24 hrs in presence of 2,2,6,6-tetramethyl-1-piperidine-1-oxyl and ferrous sulfate by LC/MS analysis
[4] = Induction of alkylated heme adduct formation from reaction with ferrous heme by LC/MS analysis
[5] = Induction of oxyl radical formation from reaction with iron(2) gluconate after 12 hrs by LC/MS analysis; format: physicochemical
[6] = Induction of 2-Linoleoyl-1-palmitoyl-sn-phosphotidylcholine peroxidation in the presence of ferrous sulphate after 24 hrs by ESI/MS analysis; format: functional
[7] = Induction of oxyl radical formation from reaction with ferrous heme assessed as decrease in heme concentration by HPLC analysis relative to control; format: physicochemical; design: scale not given: the % may be the effect or the level left
[8] = Induction of formation of chlorin-type adduct from reaction with iron(2) tetraphenylporphyrin; format: physicochemical
[9] = Induction of formation of demetalated adduct from reaction with iron(2) tetraphenylporphyrin; format: physicochemical
[10] = Induction of oxyl radical formation from reaction with ferrous salt in the presence of 2,2,6,6-tetramethyl-1-piperidine-1-oxyl after 24 hrs by spin-trapping and LC/MS analysis; format: physicochemical
[11] = Induction of formation of Manganese-TPC adduct from reaction with manganese(2) tetraphenylporphyrin; format: physicochemical

SMILES: CN1CCN(C2CCN(C(=O)C[C@H]3CC[C@]4(CC3)OO[C@]3(O4)C4CC5CC(C4)CC3C5)CC2)CC1
- pIC50 (Plasmodium falciparum): 9.30
- Activity [1]: Active
- Stability [2]: Unstable

SMILES: CCOC(=O)CC1CCC2(CC1)OOC1(OO2)C2CC3CC(C2)CC1C3 (centres undefined)
- pIC50 (Plasmodium falciparum): 8.00
- Activity [3]: Active

SMILES: O=C(CC1CCC2(CC1)OOC1(OO2)C2CC3CC(C2)CC1C3)N1CCOCC1 (centres undefined)
- pIC50 (Plasmodium falciparum): 8.28
- Activity [4]: Active

SMILES: O=C(CC1CCC2(CC1)OOC1(OO2)C2CC3CC(C2)CC1C3)NCc1ccc(F)cc1 (centres undefined)
- Activity [5]: Active
- pIC50 (Plasmodium falciparum): 8.52
- Activity [6]: Active

SMILES: CC(C)CN1CCN(C(=O)C[C@H]2CC[C@]3(CC2)OO[C@]2(O3)C3CC4CC(C3)CC2C4)CC1
- pIC50 (Plasmodium falciparum): 8.68
- Activity [1]: Active
- Activity [4]: Active
- Stability [2]: Unstable

SMILES: O=C(CC1CCC2(CC1)OOC1(OO2)C2CC3CC(C2)CC1C3)NC1CC1 (centres undefined)
- pIC50 (Plasmodium falciparum): 8.64
- Activity [3]: Active

SMILES: C[C@@H]1CC[C@H]2[C@@H](C)C(=O)O[C@@H]3O[C@@]4(C)CC[C@@H]1[C@]32OO4 [ARTEMISININ]
- Activity [7]: 70%
- Activity [6]: inactive

SMILES: O=C(CC1CCC2(CC1)OOC1(OO2)C2CC3CC(C2)CC1C3)N1CCN(C2CCNCC2)CC1 (centres undefined)
- pIC50 (Plasmodium falciparum): 9.40
- Activity [7]: 38%
- Activity [1]: Active
- Activity [4]: Active
- Stability [2]: Unstable

SMILES: CC(CN1CCNCC1)C(=O)CC1CCC2(CC1)OOC1(OO2)C2CC3CC(C2)CC1C3 (centres undefined)
- Activity [8]: Active
- pIC50 (Plasmodium falciparum): 8.85
- Activity [7]: 53%
- Activity [9]: Active
- Activity [1]: Active
- Activity [10]: Active
- Activity [4]: Active
- Activity [11]: Active
- Stability [2]: Unstable
- Activity [3]: Active

SMILES: CC(C)(N)CNC(=O)C[C@H]1CC[C@]2(CC1)OO[C@]1(O2)C2CC3CC(C2)CC1C3 [OZ277]
- Activity [10]: Active
